Assay results published in patent publication US7994202B2, “Bicyclic nitrogen-containing heterocyclic compounds” (Asahi Kasei Pharma Corporation, priority 2008, dated 2011).

Tested on: female SD rat
Assay: Micturition interval prolongation in an anesthetized rat - II (0.2% acetic acid infusion to bladder)
Assay type: in vivo
Settings: urethane-anesthetized female SD rat, 0.2% acetic acid bladder infusion, administered to the left femoral vein
Procedure: Activity of prolonging micturition interval in an anesthetized rat was determined with reference to the method established by Maggi, et al. (Eur. J. Pharmacol. 145, p. 105-112 (1988)). Specifically, a female SD rat was anesthetized with urethane and fixed in a supine position, and a catheter was inserted through an external urethral opening. Using a three-way stopcock, it was connected to a pressure transducer and a syringe pump. While infusing physiological saline including 0.2% acetic acid to the bladder at constant rate, cystometrogram was recorded. After confirming stabilized micturition interval, micturition threshold pressure and maximal voiding pressure, a solvent or the compound to be tested was administered to the left femoral vein and an activity of prolonging micturition interval was determined as an efficacy of the drug compound. Each group included five animals.

O=C(O)c1csc(-n2nc(-c3ccccc3)c3ccccc32)n1 [Exp.2, 2-(3-Phenyl-1H-indazol-1-yl)thiazole-4-carboxylic acid]
Voiding interval-extending action: 30.0%
